Reference: US12606559B2, “JAK inhibitor compounds, methods for synthesizing same and use thereof” (GALDERMA HOLDING SA, priority 2020, dated 2026)
Like-named read-outs stand apart in the source and are kept apart here.

Tests used:
[1] = target: T1, Recombinant JAK1 (Homo sapiens, UniProt P23458); test: In vitro enzyme assay (Cisbio kinase assay), JAK1; format: biochemical; conditions: ATP 300 μM; read-out: Enzymatic assay: IC50 JAK1
T1 construct: purchased Life Technologies PV4775

[2] = test system: IL-6 induced p-STAT3Y705 in skin; test: In vivo pharmacodynamy model: IL-6 induced Phospho-STAT3, topical; parameters: species or system BALB/c ByJ Rj mice; conditions: topical 1 mM, vehicle PG/EtOH 3/7
[3] = pKa; format: physicochemical
[4] = Human skin ex vivo: flux through skin and dermis concentration (Franz cells); format: in vitro ADME; conditions: PG/H2O cream 1 mg/mL
[5] = Kinetic aqueous solubility; format: physicochemical
[6] = Protein binding analysis (RED), rat plasma; format: in vitro ADME, male Wistar Han rat; conditions: 5 μM, RED 4 h
Experimental: The protein binding was assessed in plasma of Human, male balb-c mice, male Wistar Han rat, male Gottingen minipig by rapid equilibrium dialysis (RED) devices. After the plasma and buffer phosphate 50 mM pH7.4 were equilibrated at 37° C., the compound was added to plasma to reach a final concentration of 5 μM. An aliquot of plasma was withdrawn immediately. Equilibration under mild agitation was continued for 4 h. The plasma and buffer were sampled and samples were quenched with 4 volumes of acetonitrile and centrifuged. Supernatant was quantified in HPLC/MS/MS to calculate the recovery and the percentage of compound dissolved in the buffer (unbound) and bound to plasma proteins.

[7] = Intrinsic clearance in human hepatocytes; format: in vitro ADME; conditions: 2.5 μM
Experimental: (§1) The intrinsic clearance was assessed in cryopreserved Hepatocytes obtained by Human livers donors of mix gender pooled together, male balb-c mouse, male Wistar Han rats and male Göttingen minipig, by looking at the parent compound disappearance. The incubations were performed using a final concentration of viable cells of 1 million/ml (viability above 70%) and test item of 2.5 μM. Incubations were followed up to 2 h. Aliquotes were withdrawn at different time points and reaction quenched with acetonitrile. After centrifugation the supernatant was analyzed by HPLC/MS to quantify the remaining amount of parent in comparison with time 0. The clearance was calculated by fitting the log of the percentage remaining with Graphpad Prism ver.7.

[8] = Intrinsic clearance in rat hepatocytes; format: in vitro ADME, male Wistar Han rats; conditions: 2.5 μM
Experimental: as §1

[9] = Intrinsic clearance in mouse hepatocytes; format: in vitro ADME, male balb-c mouse; conditions: 2.5 μM
Experimental: as §1

[10] = Intrinsic clearance in minipig hepatocytes; format: in vitro ADME, male Göttingen minipig; conditions: 2.5 μM
Experimental: as §1

[11] = In vivo pharmacokinetic analysis in rat, iv; parameters: species or system male Wistar Han rat; conditions: iv 1 mg/kg; for clearance / Vd / half-life: male, Wistar Han, rat, whole blood; for clearance: blood, read-out: iv PK rat: Cl; for Vd: read-out: iv PK rat: Vd; for half-life: read-out: iv PK rat: t½ (converted)
Experimental: (§2) One male Wistar Han rat. Compound was administered intravenously to fed animal at a target dose of 1 mg/kg, dose volume: 2 mL/kg, in DMSO/hydroxypropyl-beta-cyclodextrin 20% in phosphate buffer 60 mM pH 7 (5:95). Blood samples were collected at various time points. Blood samples were then assayed using a method based upon protein precipitation with acetonitrile followed by LC/MS/MS analysis. Non-compartmental methods were used for pharmacokinetic analysis of blood concentration versus time data

[12] = In vivo pharmacokinetic analysis in minipig, iv; parameters: species or system male Göttingen minipigs; conditions: iv 1 mg/kg; for clearance: male, Göttingen, minipig, whole blood, blood, read-out: iv PK minipig: Cl
Experimental: as §2, with “Three” for “One”, “Göttingen minipigs.” for “Wistar Han rat.”, “animals” for “animal”, “volume 1” for “volume: 2”, “DMSO: hydroxypropyl-β-cyclodextrin” for “DMSO/hydroxypropyl-beta-cyclodextrin”, “data.” for “data”

[13] = target: T2, CYP3A4 (Homo sapiens, UniProt P08684); test: CYP3A inhibition in human liver microsomes; format: in vitro ADME
T2 construct: assessed in Human pooled liver microsomes of mixed gender; from tissue; host or cells: human pooled liver microsomes

[14] = target: T3, acetylcholinesterase (h) (Homo sapiens, UniProt P22303); test: CEREP Safety Screen-44: acetylcholinesterase (h); format: biochemical
T3 construct: CEREP
Experimental: An in vitro pharmacology assay was conducted to assess the capability of the compounds to interact with different pharmacological targets when tested at 10 μM in different binding and enzyme/uptake assays. The included targets are indicative of potential effects in major organs and drug-drug interactions.
Compound binding was calculated as a % inhibition of the binding of a radioactively labelled ligand specific for each target. […] Results showing an inhibition or stimulation higher than 50% are considered to represent significant effects of the test compounds.

[15] = Plasma exposure, dermis concentration and skin/plasma ratio compared to Ruxolitinib; conditions: in vivo
[16] = BALB/c ByJ Rj, in vivo
[17] = Systemic level in PD/IL6 mouse topical dose response; conditions: topical 10 mM, PG/Acetone/Transcutol
[18] = midazolam, read-out: IC50 CYP3A4 mid.
[19] = testosterone, read-out: IC50 CYP3A4 testo.

T2 sequence (P08684 2-503): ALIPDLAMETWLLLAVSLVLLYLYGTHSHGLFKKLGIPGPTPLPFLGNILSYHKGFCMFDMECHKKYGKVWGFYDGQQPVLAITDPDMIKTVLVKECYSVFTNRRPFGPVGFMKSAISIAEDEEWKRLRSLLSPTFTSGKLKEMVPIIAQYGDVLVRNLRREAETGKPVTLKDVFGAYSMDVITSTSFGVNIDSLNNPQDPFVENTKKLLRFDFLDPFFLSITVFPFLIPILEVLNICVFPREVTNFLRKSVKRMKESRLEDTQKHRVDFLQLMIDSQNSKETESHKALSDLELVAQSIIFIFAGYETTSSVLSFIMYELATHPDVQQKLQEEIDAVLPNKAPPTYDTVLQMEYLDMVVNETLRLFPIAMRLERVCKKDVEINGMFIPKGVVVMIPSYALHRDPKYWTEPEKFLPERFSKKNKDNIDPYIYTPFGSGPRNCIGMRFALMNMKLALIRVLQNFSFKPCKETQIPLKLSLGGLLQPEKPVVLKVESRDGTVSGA
T1 sequence (P23458 whole entry): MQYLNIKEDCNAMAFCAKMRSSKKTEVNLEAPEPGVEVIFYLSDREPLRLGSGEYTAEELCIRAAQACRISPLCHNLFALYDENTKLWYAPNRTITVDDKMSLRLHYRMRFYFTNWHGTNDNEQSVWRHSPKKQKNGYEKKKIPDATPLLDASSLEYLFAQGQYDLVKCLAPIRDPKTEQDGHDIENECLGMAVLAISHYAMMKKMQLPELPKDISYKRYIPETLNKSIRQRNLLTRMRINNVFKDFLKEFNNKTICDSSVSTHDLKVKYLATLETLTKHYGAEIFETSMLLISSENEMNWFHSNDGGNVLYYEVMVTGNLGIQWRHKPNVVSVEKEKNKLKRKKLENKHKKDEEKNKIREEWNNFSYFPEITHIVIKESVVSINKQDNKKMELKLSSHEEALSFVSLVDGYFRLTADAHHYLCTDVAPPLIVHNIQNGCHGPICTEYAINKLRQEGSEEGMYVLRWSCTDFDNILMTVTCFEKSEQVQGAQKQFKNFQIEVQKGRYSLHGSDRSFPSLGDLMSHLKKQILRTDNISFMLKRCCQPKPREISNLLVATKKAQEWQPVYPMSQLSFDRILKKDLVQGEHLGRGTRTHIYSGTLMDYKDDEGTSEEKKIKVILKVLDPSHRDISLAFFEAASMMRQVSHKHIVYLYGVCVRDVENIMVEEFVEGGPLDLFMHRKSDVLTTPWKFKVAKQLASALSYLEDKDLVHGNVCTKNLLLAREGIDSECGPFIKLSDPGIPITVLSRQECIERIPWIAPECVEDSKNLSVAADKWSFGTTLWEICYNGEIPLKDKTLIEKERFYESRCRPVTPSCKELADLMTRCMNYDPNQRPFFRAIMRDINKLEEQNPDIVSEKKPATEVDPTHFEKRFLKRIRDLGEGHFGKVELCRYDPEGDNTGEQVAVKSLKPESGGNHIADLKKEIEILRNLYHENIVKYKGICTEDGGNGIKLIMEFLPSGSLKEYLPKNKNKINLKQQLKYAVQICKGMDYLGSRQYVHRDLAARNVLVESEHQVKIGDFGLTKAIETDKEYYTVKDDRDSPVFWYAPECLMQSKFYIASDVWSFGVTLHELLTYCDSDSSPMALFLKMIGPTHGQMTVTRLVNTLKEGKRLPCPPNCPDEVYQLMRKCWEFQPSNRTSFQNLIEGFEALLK
T3 sequence (P22303 32-614): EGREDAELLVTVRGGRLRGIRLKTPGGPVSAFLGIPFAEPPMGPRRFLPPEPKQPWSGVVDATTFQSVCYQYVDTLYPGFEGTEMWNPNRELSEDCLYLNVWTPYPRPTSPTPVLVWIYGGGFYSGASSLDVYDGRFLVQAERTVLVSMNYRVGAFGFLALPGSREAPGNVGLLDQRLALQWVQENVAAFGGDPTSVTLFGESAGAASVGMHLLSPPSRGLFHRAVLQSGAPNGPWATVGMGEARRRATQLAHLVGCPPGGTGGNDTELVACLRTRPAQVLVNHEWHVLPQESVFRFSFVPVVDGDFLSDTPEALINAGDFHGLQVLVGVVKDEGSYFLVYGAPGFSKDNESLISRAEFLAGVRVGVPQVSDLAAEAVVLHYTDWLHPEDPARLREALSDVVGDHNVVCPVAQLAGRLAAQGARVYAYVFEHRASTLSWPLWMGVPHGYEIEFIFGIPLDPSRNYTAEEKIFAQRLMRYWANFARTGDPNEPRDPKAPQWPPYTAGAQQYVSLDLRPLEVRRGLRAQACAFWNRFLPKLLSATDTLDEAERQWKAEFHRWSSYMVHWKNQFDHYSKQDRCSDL

## CC1(C)CCN(C(=O)C[C@H]2C[C@@H](Nc3c(C#N)cnc4[nH]ccc34)C2)CC1 [Compound A, 4-(((cis)-3-(2-(4,4-dimethylpiperidin-1-yl)-2-oxoethyl)cyclobutyl)amino)-1H-pyrrolo[2,3-b]pyridine-5-carbonitrile]
[1]
  IC50: 3 nM
[2]
  PD/IL6 mouse top @1 mM % inh vs vehicle: 66%
[3]
  pKa: 3.7
[4]
  dermis concentration: 0.25 µM
  measured flux 6-24 hr: 2.5 ng/cm^2/hr
[5]
  Kinetic aq sol: 15 µM
[6]
  rFU: 3.6%
[7]
  Intr. Clear. h heps: 264 microL/min/10 6 cells
[8]
  Intr. Clear. rheps: > 152 microL/min/10 6 cells
[9]
  Intr. Clear. mheps: 215 microL/min/10 6 cells
[10]
  Intr. Clear. minipig heps: > 300 microL/min/10 6 cells
[11]
  iv PK rat: Cl (value in brackets, %): 46%
  clearance: 36 mL/min/kg
  Vd: 1.4 L/kg
  half-life: 32.4 min
[12]
  iv PK minipig: Cl (value in brackets, %): 111%
  clearance: 31 mL/min/kg
[13]; [18]
  IC50: 3600 nM
[13]; [19]
  IC50: 1500 nM
[14]
  Safety panel (Cerep): target with > 50% inh @ 10 microM: acetylcholinesterase
[15]
  dermis concentration, times higher compared to Ruxolitinib: 2.4
  plasma exposure, times lower compared to Ruxolitinib: 2.9
  skin/plasma ratio, times higher compared to Ruxolitinib: 7
[16]
  PD/IL6 mouse top DR 0.01-10 mM: Systemic level @ 10 mM - 2 hrs: 9.8 nM

## CC1CCN(C(=O)C[C@H]2C[C@@H](Nc3c(C#N)cnc4[nH]ccc34)C2)CC1 [Compound B, 4-(((cis)-3-(2-(4-Methylpiperidin-1-yl)-2-oxoethyl)cyclobutyl)amino)-1H-pyrrolo[2,3-b]pyridine-5-carbonitrile]
[1]
  IC50: 4 nM
[2]
  PD/IL6 mouse top @1 mM % inh vs vehicle: 81%/ND Tofa @ 10 mM
[4]
  dermis concentration: 0.9 µM
  measured flux 6-24 hr: 2.4 ng/cm^2/hr
[5]
  Kinetic aq sol: 35 µM
[6]
  rFU: 2.8%
[7]
  Intr. Clear. h heps: 147 microL/min/10 6 cells
[8]
  Intr. Clear. rheps: 134 microL/min/10 6 cells
[9]
  Intr. Clear. mheps: > 300 microL/min/10 6 cells
[10]
  Intr. Clear. minipig heps: 248 microL/min/10 6 cells
[11]
  iv PK rat: Cl (value in brackets, %): 46%
  clearance: 36 mL/min/kg
  Vd: 0.8 L/kg
  half-life: 15.6 min
[12]
  iv PK minipig: Cl (value in brackets, %): 97%
  clearance: 27 mL/min/kg
[13]; [18]
  IC50: 9400 nM
[13]; [19]
  IC50: 5600 nM
[17]
  PD/IL6 mouse top DR 0.01-10 mM: Systemic level @ 10 mM - 2 hrs: 9.8 nM
